Source: ChEMBL document CHEMBL1131022, “Synthesis and biological activity of a novel methylamine-bridged enkephalin analogue (MABE): a new route to cyclic peptides and peptidomimetics” (J Med Chem, 1998)

Legend:
Rattus norvegicus = assay: In vivo efficacy was measured using thermal escape assay; format: functional
[1] = target: Kappa-type opioid receptor (Homo sapiens, UniProt P41145); assay: In vitro potency was measured against human Opioid receptor kappa 1
[2] = target: Delta-type opioid receptor (Homo sapiens, UniProt P41143); assay: In vitro potency was measured against human Opioid receptor delta 1
Delta-type opioid receptor, sequence (P41143 whole entry): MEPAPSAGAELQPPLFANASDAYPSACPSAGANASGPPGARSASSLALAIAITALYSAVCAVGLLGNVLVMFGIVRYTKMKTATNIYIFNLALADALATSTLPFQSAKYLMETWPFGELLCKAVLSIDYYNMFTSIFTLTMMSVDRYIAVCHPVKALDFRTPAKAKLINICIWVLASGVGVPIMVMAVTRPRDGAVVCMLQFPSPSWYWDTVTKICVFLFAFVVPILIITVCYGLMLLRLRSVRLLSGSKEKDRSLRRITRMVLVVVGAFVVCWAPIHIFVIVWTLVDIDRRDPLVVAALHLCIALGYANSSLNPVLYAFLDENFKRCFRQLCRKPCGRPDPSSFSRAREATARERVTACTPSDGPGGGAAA

Mu-type opioid receptor = Mu-type opioid receptor (Homo sapiens, UniProt P35372); assay: In vitro potency was measured against human Opioid receptor mu 1
Mu-type opioid receptor, sequence (P35372 whole entry): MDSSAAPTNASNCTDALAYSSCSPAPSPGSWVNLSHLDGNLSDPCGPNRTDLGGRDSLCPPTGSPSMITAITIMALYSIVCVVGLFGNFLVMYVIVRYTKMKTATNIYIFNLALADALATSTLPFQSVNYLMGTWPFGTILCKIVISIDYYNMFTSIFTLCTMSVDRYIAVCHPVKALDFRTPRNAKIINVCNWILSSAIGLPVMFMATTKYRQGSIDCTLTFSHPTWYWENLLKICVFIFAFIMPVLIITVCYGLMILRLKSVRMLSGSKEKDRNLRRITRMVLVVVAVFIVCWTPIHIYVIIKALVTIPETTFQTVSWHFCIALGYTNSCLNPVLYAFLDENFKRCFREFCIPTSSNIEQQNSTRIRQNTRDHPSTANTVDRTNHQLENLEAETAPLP

Kappa-type opioid receptor, sequence (P41145 whole entry): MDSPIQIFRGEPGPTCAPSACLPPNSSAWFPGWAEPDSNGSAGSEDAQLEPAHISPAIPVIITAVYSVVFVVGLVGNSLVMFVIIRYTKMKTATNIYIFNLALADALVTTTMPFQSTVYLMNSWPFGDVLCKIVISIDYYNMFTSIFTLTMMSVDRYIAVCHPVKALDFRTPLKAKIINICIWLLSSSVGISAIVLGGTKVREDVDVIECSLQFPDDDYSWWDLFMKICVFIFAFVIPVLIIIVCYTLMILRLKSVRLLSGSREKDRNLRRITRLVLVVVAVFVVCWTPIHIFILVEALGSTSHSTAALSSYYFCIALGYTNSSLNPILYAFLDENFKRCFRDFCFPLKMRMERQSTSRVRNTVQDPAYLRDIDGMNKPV

## CN1CC[C@]23c4c5ccc(O)c4O[C@H]2[C@@H](O)C=C[C@H]3[C@H]1C5 [MORPHINE]
Rattus norvegicus
  ED50: 2.4 µg

## C[C@@H](NC(=O)[C@@H](N)Cc1ccc(O)cc1)C(=O)NCC(=O)N(C)[C@@H](Cc1ccccc1)C(=O)NCCO [DAMGO]
Rattus norvegicus
  ED50: 0.14 µg

## CC1(C)SSC(C)(C)C(NC(=O)[C@@H](N)Cc2ccc(O)cc2)C(=O)NCC(=O)N[C@@H](Cc2ccccc2)C(=O)NC1C(=O)O (single isomer, unassigned)
Rattus norvegicus
  ED50: 54 µg

## CN1CCNC(=O)[C@H](Cc2ccccc2)NC(=O)CNC(=O)[C@H](NC(=O)[C@@H](N)Cc2ccc(O)cc2)C1
[1]
  Ki: 340 nM
[2]
  Ki: 2.1 nM
Mu-type opioid receptor
  Ki: 1.6 nM
Rattus norvegicus
  ED50: 0.027 µg
